According to patent publication US20260193226A1, “MICROBIOCIDAL TETRAHYDROISOQUINOLINE DERIVATIVES” (SYNGENTA CROP PROTECTION AG, priority 2022, published 2026):

test system: Mycosphaerella graminicola (Septoria tritici); assay: Mycosphaerella graminicola (Septoria tritici) / liquid culture (Septoria blotch); assay type: cell-based; settings: Zymoseptoria tritici, compared to untreated control
Description: Example B15: Mycosphaerella graminicola (Septoria tritici)/Liquid Culture (Septoria Blotch) Conidia of the fungus from cryogenic storage are directly mixed into nutrient broth (PDB potato dextrose broth). After placing a (DMSO) solution of test compound into a microtiter plate (96-well format), the nutrient broth containing the fungal spores is added. The test plates are incubated at 24° C. and the inhibition of growth is determined photometrically 4 to 5 days after application.

SMILES	inhibition of growth at 20 ppm [%]
Cc1c(C2CN(C(=O)COc3ccc(F)cc3F)Cc3ccccc32)cnn1C (stereo not shown) [Compound P-13, 2-(2,4-difluorophenoxy)-1-[4-(1,5-dimethylpyrazol-4-yl)-3,4-dihydro-1H-isoquinolin-2-yl]ethanone]	≥ 80
Cc1c(C2CN(C(=O)NCCC3CCCCCC3)Cc3ccccc32)cnn1C (stereo not shown) [Compound P-32, N-(2-cycloheptylethyl)-4-(1,5-dimethylpyrazol-4-yl)-3,4-dihydro-1H-isoquinoline-2-carboxamide]	≥ 80
Cc1c(C2CN(C(=O)NCCC(C)(C)C3CC3)Cc3ccccc32)cnn1C (stereo not shown) [Compound P-39, N-(3-cyclopropyl-3-methyl-butyl)-4-(1,5-dimethylpyrazol-4-yl)-3,4-dihydro-1H-isoquinoline-2-carboxamide]	≥ 80
Cc1c(C2CN(C(=O)NCCCC3CCCC3)Cc3ccccc32)cnn1C (stereo not shown) [Compound P-38, N-(3-cyclopentylpropyl)-4-(1,5-dimethylpyrazol-4-yl)-3,4-dihydro-1H-isoquinoline-2-carboxamide]	≥ 80
Cc1c(C2CN(C(=O)OCCc3ccc(F)cc3)Cc3ccccc32)cnn1C (stereo not shown) [Compound P-25, 2-(4-fluorophenyl)ethyl 4-(1,5-dimethylpyrazol-4-yl)-3,4-dihydro-1H-isoquinoline-2-carboxylate]	≥ 80
Cc1nc(NC(=O)N2Cc3ccccc3C(c3cnn(C)c3C)C2)ccc1Cl (stereo not shown) [Compound P-35, N-(5-chloro-6-methyl-2-pyridyl)-4-(1,5-dimethylpyrazol-4-yl)-3,4-dihydro-1H-isoquinoline-2-carboxamide]	≥ 80
Cc1c(C2CN(C(=O)OCCC3CC3)Cc3ccccc32)cnn1C (stereo not shown) [Compound P-3, 2-cyclopropylethyl 4-(1,5-dimethylpyrazol-4-yl)-3,4-dihydro-1H-isoquinoline-2-carboxylate]	≥ 80
Cc1c([C@H]2CN(C(=O)NCc3ccc(F)cc3F)[C@@H](C)c3ccccc32)cnn1C (racemic) [Compound P-44, rac-(1S,4S)-N-[(2,4-difluorophenyl)methyl]-4-(1,5-dimethylpyrazol-4-yl)-1-methyl-3,4-dihydro-1H-isoquinoline-2-carboxamide]	≥ 80
Cc1c([C@H]2CN(C(=O)NCCCCC(F)F)[C@@H](C)c3ccccc32)cnn1C [Compound P-53, (1S,4S)-N-(5,5-difluoropentyl)-4-(1,5-dimethylpyrazol-4-yl)-1-methyl-3,4-dihydro-1H-isoquinoline-2-carboxamide]	≥ 80
Cc1c(C2CN(C(=O)CCCCC3CC3)Cc3ccccc32)cnn1C (stereo not shown) [Compound P-48, 5-cyclopropyl-1-[4-(1,5-dimethylpyrazol-4-yl)-3,4-dihydro-1H-isoquinolin-2-yl]pentan-1-one]	≥ 80
Cc1c(C2CN(C(=O)CCCC=C(F)F)Cc3ccccc32)cnn1C (stereo not shown) [Compound P-24, 1-[4-(1,5-dimethylpyrazol-4-yl)-3,4-dihydro-1H-isoquinolin-2-yl]-6,6-difluoro-hex-5-en-1-one]	≥ 80
Cc1c(C2CN(C(=O)Nc3ccc(Cl)cc3)Cc3ccccc32)cnn1C (stereo not shown) [Compound P-40, N-(4-chlorophenyl)-4-(1,5-dimethylpyrazol-4-yl)-3,4-dihydro-1H-isoquinoline-2-carboxamide]	≥ 80
C#CCCCCCC(=O)N1Cc2ccccc2C(c2cnn(C)c2C)C1 (stereo not shown) [Compound P-21, 1-[4-(1,5-dimethylpyrazol-4-yl)-3,4-dihydro-1H-isoquinolin-2-yl]oct-7-yn-1-one]	≥ 80
CCCCCCC(=O)N1Cc2ccccc2C(C)(c2cnn(C)c2)C1 (stereo not shown) [Compound P-8, 1-[4-methyl-4-(1-methylpyrazol-4-yl)-1,3-dihydroisoquinolin-2-yl]heptan-1-one]	≥ 80
Cc1c(C2CN(C(=O)Nc3nc4ccccc4s3)Cc3ccccc32)cnn1C (stereo not shown) [Compound P-33, N-(1,3-benzothiazol-2-yl)-4-(1,5-dimethylpyrazol-4-yl)-3,4-dihydro-1H-isoquinoline-2-carboxamide]	≥ 80
CCCCCC(=O)N1Cc2ccccc2C(c2cnn(C)c2C)C1 (stereo not shown) [Compound P-5, 1-[4-(1,5-dimethylpyrazol-4-yl)-3,4-dihydro-1H-isoquinolin-2-yl]hexan-1-one]	≥ 80
Cc1c(C2CN(C(=O)CCCCC3CCSS3)Cc3ccccc32)cnn1C (stereo not shown) [Compound P-18, 1-[4-(1,5-dimethylpyrazol-4-yl)-3,4-dihydro-1H-isoquinolin-2-yl]-5-(dithiolan-3-yl)pentan-1-one]	≥ 80
Cc1c(C2CN(C(=O)CCc3ccc(Cl)c(Cl)c3)Cc3ccccc32)cnn1C (stereo not shown) [Compound P-23, 3-(3,4-dichlorophenyl)-1-[4-(1,5-dimethylpyrazol-4-yl)-3,4-dihydro-1H-isoquinolin-2-yl]propan-1-one]	≥ 80
Cc1c([C@H]2CN(C(=O)NCCCCCF)[C@@H](C)c3ccccc32)cnn1C [Compound P-52, (1S,4S)-4-(1,5-dimethylpyrazol-4-yl)-N-(5-fluoropentyl)-1-methyl-3,4-dihydro-1H-isoquinoline-2-carboxamide]	≥ 80
Cn1cc(C2(C)CN(C(=O)OCCC3CCCCC3)Cc3ccccc32)cn1 (stereo not shown) [Compound P-12, 2-cyclohexylethyl 4-methyl-4-(1-methylpyrazol-4-yl)-1,3-dihydroisoquinoline-2-carboxylate]	≥ 80
CCCCCCCCCC(=O)N1Cc2ccccc2C(c2cnn(C)c2C)C1 (stereo not shown) [Compound P-9, 1-[4-(1,5-dimethylpyrazol-4-yl)-3,4-dihydro-1H-isoquinolin-2-yl]decan-1-one]	≥ 80
Cc1c(C2CN(C(=O)COCc3ccc(F)cc3F)Cc3ccccc32)cnn1C (stereo not shown) [Compound P-15, 2-[(2,4-difluorophenyl)methoxy]-1-[4-(1,5-dimethylpyrazol-4-yl)-3,4-dihydro-1H-isoquinolin-2-yl]ethanone]	≥ 80
Cc1c(C2CN(C(=O)Nc3cc(C(C)(C)C)on3)Cc3ccccc32)cnn1C (stereo not shown) [Compound P-34, N-(5-tert-butylisoxazol-3-yl)-4-(1,5-dimethylpyrazol-4-yl)-3,4-dihydro-1H-isoquinoline-2-carboxamide]	≥ 80
Cc1c(C2CN(C(=O)Nc3ccc(C4CC4)cc3)Cc3ccccc32)cnn1C (stereo not shown) [Compound P-41, N-(4-cyclopropylphenyl)-4-(1,5-dimethylpyrazol-4-yl)-3,4-dihydro-1H-isoquinoline-2-carboxamide]	≥ 80
Cc1c(C2CN(C(=O)CCc3ccc(Br)cc3)Cc3ccccc32)cnn1C (stereo not shown) [Compound P-20, 3-(4-bromophenyl)-1-[4-(1,5-dimethylpyrazol-4-yl)-3,4-dihydro-1H-isoquinolin-2-yl]propan-1-one]	≥ 80
